According to US9089601B2, “Pre- and intra-operative imaging of bladder cancer” (University of Rochester, priority 2006, dated 2015):

How the values were obtained:
mammals = details: cited from earlier work; for neuronal toxicity: used in mammals
[1] = cited from earlier work
[2] = system: UPII-SV40T transgenic mice; assay: Intravesical instillation of ICG and intraoperative NIRF identification of lymphatic channels and SLNs in bladder tumor mice; format: in vivo

N=C(N)c1ccc(/C=C/c2ccc(C(=N)N)cc2O)cc1 [Fluorogold]
neuronal toxicity (mammals): low evidence of neuronal toxicity

CC1(C)C(/C=C/C=C/C=C/C=C2\N(CCCCS(=O)(=O)O)c3ccc4ccccc4c3C2(C)C)=[N+](CCCCS(=O)(=O)[O-])c2ccc3ccccc3c21 [ICG, indocyanine green]
toxicity (mammals; in vivo): low toxicity | neuronal toxicity (mammals): low evidence of neuronal toxicity | metabolism ([1]; in the body): not metabolized | excretion ([1]; in vivo): excreted exclusively by the liver | reabsorption from the intestine / enterohepatic recirculation ([1]; in vivo): not reabsorbed from the intestine and does not undergo enterohepatic recirculation | animals showing draining lymphatic channels and SLNs ([2]; 12 female mice, intravesical ICG 2.5 mg/mf, 100 or 200 μl, NIRF 20, 30 and 60 minutes later): 12 animals | visualization of SLNs by intraoperative imaging ([2]; dye instilled at 10, 20, 30, or 60 minutes before imaging): successfully visualized | sentinel nodes detected per animal ([2]; in all animals, intravesical ICG, NIRF): At least two | location of SLNs ([2]; intravesical ICG, NIRF): common or external iliac lymphatic chains | fluorescence of lymphatic channels and nodes following instillation of the dye into the bladder ([2]; mouse, FIG. 1B and 1C): fluorescing of the mouse's lymphatic channels and nodes on iliac bifurcation

Fast Blue
neuronal toxicity (mammals): low evidence of neuronal toxicity
